The numbers were not newly measured in patent US6803057B2, “Hydrogen peroxide disinfectant with increased activity” (Virox Technologies Inc., priority 1998, dated 2004), which cites them from elsewhere.

SMILES strings stand for the structures. Where two headings read alike, the source gives them in different places.

The test system of data set [1] is Salmonella typhimurium and Listeria monocytogenes.

Regarding `CCCCCCCCCCCCc1ccc(S(=O)(=O)O)cc1` [DDBSA, dodecyl benzene sulfonic acid], the “concentration effective in sanitizing” value in data set [1] is given as not below 200 ppm.
As to `OO` [hydrogen peroxide], the “time required to disinfect surfaces contaminated with staphylococcus aureus” value was 60 min with staphylococcus aureus (0.1 wt./wt. % aqueous solution) and 0.333 min with staphylococcus aureus (25.8 wt./wt. % aqueous solution). Moreover, the corrosivity / irritancy entry (1-3 wt./wt. % aqueous solution) is “non-corrosive and non-irritating”; the corrosivity / irritancy result (3-7 wt./wt. % aqueous solution) is reported as “non-corrosive but an eye irritant”; the corrosivity / irritancy result (above about 8 wt./wt. % aqueous solution) is reported as “corrosive”.
